What is called melting point is the temperature of the solid-liquid transition. Regarding `Cc1oc(-c2ccc(F)cc2)cc1C(=O)N(C)c1cccc(CSCC(=O)O)c1` [Example 1(1), [(3{[5-(4-Fluorophenyl)-2-methyl-3-furoyl](methyl)amino}benzyl)thio]acetic acid], the melting point fell in the range of 155 to 156 °C.

In turn, `CCCN(C(=O)c1cc(-c2ccc(F)cc2)oc1C)c1cccc(CSCC(=O)O)c1` [Example 1(2), [(3{[5-(4-Fluorophenyl)-2-methyl-3-furoyl](propyl)amino}benzyl)thio]acetic acid] showed a melting point of 140 to 141 °C.

The molecule `O=C(O)CSCc1cccc(NC(=O)c2ccc(-c3ccc(Cl)cc3)o2)c1` [Example 2(3), [(3-{[5-(4-Chlorophenyl)-2-furoyl]amino}benzyl]thio]acetic acid] came in with a melting point of 173 to 174 °C.

Molecule `CCCCc1oc(-c2ccc(C(F)(F)F)cc2)cc1CCC(=O)Nc1cccc(CSCC(=O)O)c1` [Example 2(5), ({3-[(3-{2-Butyl-5-[4-(trifluoromethyl)phenyl]-3-furyl}propionyl)amino)benzyl}thio) acetic acid] came in with a melting point of 137 to 138 °C.

`Cc1oc(-c2ccc(C(F)(F)F)cc2)cc1CC(=O)Nc1cccc(CSCC(=O)O)c1` [Example 4(1), ({3-[({2-Methyl-5-[4-(trifluoromethyl)phenyl]-3-furyl}acetyl)amino]benzyl}thio)acetic acid]: the melting point was 173 to 174 °C.

`Cc1oc(-c2ccc(OC(F)(F)F)cc2)cc1C(=O)Nc1cccc(CSCC(=O)O)c1` [Example 4(2)] came in with a melting point of 200 to 202 °C.

On to `O=C(O)CSCc1cccc(OCc2cc(-c3ccccc3)oc2C(F)(F)F)c1` [Example 5(4), [(3-{[5-Phenyl-2-(trifluoromethyl)-3-furyl]methoxy}benzyl)thio]acetic acid], for which the melting point lay within 84 to 85 °C.

As for `Cc1cc(OCc2cc(-c3ccc(C(F)(F)F)cc3)oc2C)ccc1CC(=O)O` [Example 6(3), [2-Methyl-4-({2-methyl-5-[4-(trifluoromethyl)phenyl]-3-furyl}methoxy)phenyl]acetic acid], the melting point lay in the range of 147 to 149 °C.

`Cc1oc(-c2ccc(C(F)(F)F)cc2)cc1COc1ccc(OC(C)(C)C(=O)O)cc1` [Example 6(5), 2-Methyl-2-[4-({2-methyl-5-[4-(trifluoromethyl)phenyl]-3-furyl}methoxy)phenoxy]propionic acid] displayed a melting point of 134 to 135 °C.

Molecule `Cc1oc(-c2ccc(C(F)(F)F)cc2)cc1CCCOc1ccc(CC(=O)O)cc1` [Example 6(8), [4-(3-{2-Methyl-5-[4-(trifluoromethyl)phenyl]-3-furyl}propoxy)phenyl]acetic acid] displayed a melting point of 113 to 114 °C.

The molecule `Cc1oc(-c2ccc(C(F)(F)F)cc2)cc1COc1ccc(CC(=O)O)cc1` [Example 6(9), [4-({2-Methyl-5-[4-(trifluoromethyl)phenyl]-3-furyl}methoxy)phenyl]acetic acid] had a melting point of 147 to 149 °C.

Consider `COc1cc(OCc2cc(-c3ccc(C(F)(F)F)cc3)oc2C)ccc1CC(=O)O` [Example 6(10), [2-Methoxy-4-({2-methyl-5-[4-(trifluoromethyl)phenyl]-3-furyl}methoxy)phenyl]acetic acid], for which the melting point lay within 168 to 169 °C.

In the case of `Cc1oc(-c2ccc(F)cc2)cc1COc1cccc(COCC(=O)O)c1` [Example 6(11), [(3-{[5-(4-Fluorophenyl)-2-methyl-3-furyl]methoxy}benzyl)oxy]acetic acid], the melting point lay in the range of 109 to 110 °C.

Molecule `Cc1oc(-c2ccc(C(F)(F)F)cc2)cc1CCOc1ccc(CC(=O)O)cc1` [Example 6(13), [4-(2-{2-Methyl-5-[4-(trifluoromethyl)phenyl]-3-furyl}ethoxy)phenyl]acetic acid] came in with a melting point of 115 to 116 °C.

In the case of `CCCCc1oc(-c2ccc(C(F)(F)F)cc2)cc1CCCOc1cccc(CC(=O)O)c1` [Example 6(15), [3-(3-{2-Butyl-5-[4-(trifluoromethyl)phenyl]-3-furyl}propoxy)phenyl]acetic acid], the melting point lay within 80 to 82 °C.

Consider `CCCCc1oc(-c2ccc(C(F)(F)F)cc2)cc1CCCOc1ccc(CC(=O)O)cc1` [Example 6(16), [4-(3-{2-Butyl-5-[4-(trifluoromethyl)phenyl]-3-furyl}propoxy)phenyl]acetic acid], for which the melting point fell in the range of 96 to 97 °C.

Regarding `Cc1nc(SCc2cc(-c3ccc(F)cc3)oc2C)sc1CC(=O)O` [Example 6(18), [2-({[5-(4-Fluorophenyl)-2-methyl-3-furyl]methyl}thio)-4-methyl-1,3-thiazol-5-yl]acetic acid], the melting point is 202 to 205 °C.

Take `Cc1oc(-c2ccc(F)cc2)cc1COc1cccc(CCCC(=O)O)c1` [Example 6(19), 4-(3-{[5-(4-Fluorophenyl)-2-methyl-3-furyl]methoxy}phenyl)butanoic acid]: the melting point was 98 to 99 °C.

As to `Cc1cc(OCCc2cc(-c3ccc(C(F)(F)F)cc3)oc2C)ccc1CCC(=O)O` [Example 6(22), 3-[2-Methyl-4-(2-{2-methyl-5-[4-(trifluoromethyl)phenyl]-3-furyl}ethoxy)phenyl]propionic acid], the melting point is 118 to 120 °C.

Turning to `Cc1oc(-c2ccc(C(F)(F)F)cc2)cc1CCOc1ccc(OCC(=O)O)cc1` [Example 6(23), [4-(2-{2-Methyl-5-[4-(trifluoromethyl)phenyl]-3-furyl}ethoxy)phenoxy]acetic acid], the melting point fell in the range of 132 to 133 °C.

Molecule `Cc1oc(-c2ccc(C(F)(F)F)cc2)cc1CCCOc1ccc(OCC(=O)O)cc1` [Example 6(25), [4-(3-{2-Methyl-5-[4-(trifluoromethyl)phenyl]-3-furyl}propoxy)phenoxy]acetic acid] displayed a melting point of 134 to 135 °C.

For `CCc1oc(-c2ccc(C(F)(F)F)cc2)cc1CCCOc1ccc(CC(=O)O)cc1` [Example 6(27), [4-(3-{2-Ethyl-5-[4-(trifluoromethyl)phenyl]-3-furyl}propoxy)phenyl]acetic acid], the melting point is 121 to 122 °C.

The molecule `Cc1oc(-c2ccc(C(F)(F)F)cc2)cc1CCCOc1ccc(OC(C)(C)C(=O)O)cc1` [Example 6(31), 2-Methyl-2-[4-(3-{2-methyl-5-[4-(trifluoromethyl)phenyl]-3-furyl}propoxy)phenoxy]propionic acid] displayed a melting point of 123 to 124 °C.

The molecule `Cc1oc(-c2ccc(C(F)(F)F)cc2)cc1COc1ccc2cc(CCC(=O)O)ccc2c1` [Example 6(34), 3-[6-({2-Methyl-5-[4-(trifluoromethyl)phenyl]-3-furyl}methoxy)-2-naphthyl]propionic acid] returned a melting point of 191 to 192 °C.

`Cc1nc(SCCc2cc(-c3ccc(F)cc3)oc2C)sc1CC(=O)O` [Example 6(38), [2-({2-[5-(4-Fluorophenyl)-2-methyl-3-furyl]ethyl}thio)-4-methyl-1,3-thiazol-5-yl]acetic acid] had a melting point of 124 to 126 °C.

`CCc1oc(-c2ccc(C(F)(F)F)cc2)cc1CCCOc1ccc(OC)c(CC(=O)O)c1` [Example 6(39), [5-(3-{2-Ethyl-5-[4-(trifluoromethyl)phenyl]-3-furyl}propoxy)-2-methoxyphenyl]acetic acid] yielded a melting point of 138 to 139 °C.

Regarding `CCc1oc(-c2ccc(C(F)(F)F)cc2)cc1CCCOc1cc(CC(=O)O)ccc1OC` [Example 6(40), [3-(3-{2-Ethyl-5-[4-(trifluoromethyl)phenyl]-3-furyl}propoxy)-4-methoxyphenyl]acetic acid], the melting point is 137 to 138 °C.

(Values after US7553867B2, “Furan or thiophene derivative and medicinal use thereof” (Takeda Pharmaceutical Company Limited, priority 2002, dated 2009).)
